From publication PMC5501184 (Journal of medicinal chemistry, 2017)
Like-named read-outs stand apart in the source and are kept apart here.

Assays:
hDAT [1] = target: T1, hDAT (Homo sapiens, UniProt Q01959); assay: PDSP screen: [^3H]24 binding at hDAT; conditions: for remaining activity at 10 µM: read-out: hDAT Binding Enhancement, % of control; for inhibition at 10 µM: read-out: hDAT Binding Inhibition, % of control
hNET = hNET (Homo sapiens, UniProt P23975); assay: [^125I]23 binding to HEK-hNET membranes; conditions: maximal enhancement
Chain of hNET (P23975 whole entry): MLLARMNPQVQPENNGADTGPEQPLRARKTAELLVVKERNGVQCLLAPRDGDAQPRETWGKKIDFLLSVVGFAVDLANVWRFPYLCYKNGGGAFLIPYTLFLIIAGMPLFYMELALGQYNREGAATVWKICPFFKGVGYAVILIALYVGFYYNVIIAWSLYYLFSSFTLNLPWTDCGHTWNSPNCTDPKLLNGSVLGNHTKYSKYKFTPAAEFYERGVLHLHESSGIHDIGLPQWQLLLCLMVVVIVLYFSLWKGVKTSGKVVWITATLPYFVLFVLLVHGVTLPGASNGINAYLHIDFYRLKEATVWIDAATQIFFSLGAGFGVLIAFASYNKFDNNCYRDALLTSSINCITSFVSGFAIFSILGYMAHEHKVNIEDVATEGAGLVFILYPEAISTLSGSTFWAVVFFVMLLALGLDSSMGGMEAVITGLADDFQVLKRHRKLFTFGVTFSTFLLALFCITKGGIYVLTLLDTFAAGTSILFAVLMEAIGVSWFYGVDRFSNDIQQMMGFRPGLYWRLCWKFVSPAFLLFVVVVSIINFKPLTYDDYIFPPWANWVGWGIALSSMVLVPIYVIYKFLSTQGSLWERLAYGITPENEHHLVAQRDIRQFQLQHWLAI

mA3AR = target: T2, mA3AR (Mus musculus, UniProt Q61618); assay: A3AR radioligand; type: binding; conditions: for A3AR Binding % at 10 μM (m): mouse, % inhibition at 10 μM, radioligand [^125I]25
T2 sequence (Q61618 1-319): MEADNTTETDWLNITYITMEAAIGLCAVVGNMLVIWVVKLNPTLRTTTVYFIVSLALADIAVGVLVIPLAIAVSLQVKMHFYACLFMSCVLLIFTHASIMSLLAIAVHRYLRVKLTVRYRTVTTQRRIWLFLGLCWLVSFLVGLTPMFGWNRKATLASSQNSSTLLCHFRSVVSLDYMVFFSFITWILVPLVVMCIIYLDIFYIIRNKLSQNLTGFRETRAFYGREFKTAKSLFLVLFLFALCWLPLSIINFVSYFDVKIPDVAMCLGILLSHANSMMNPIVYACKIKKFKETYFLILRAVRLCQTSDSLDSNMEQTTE

hDAT [2] = target: T1, hDAT; assay: [^125I]23 binding to HEK-hDAT membranes; conditions: maximal enhancement
hDAT [3] = target: T1, hDAT; assay: [^3H]26 binding to HEK-hDAT membranes
[4] = tested on: mouse chronic constriction injury (CCI) model of neuropathic pain; assay: mouse chronic constriction injury; type: in vivo; conditions: 3 μmol/kg, p.o.; 7 d post-injury
hDAT [5] = target: T1, hDAT; conditions: 10 μM; [^3H]24 binding, PDSP; ref Janowsky et al.[3]; cited from earlier work

T1 sequence (Q01959 whole entry): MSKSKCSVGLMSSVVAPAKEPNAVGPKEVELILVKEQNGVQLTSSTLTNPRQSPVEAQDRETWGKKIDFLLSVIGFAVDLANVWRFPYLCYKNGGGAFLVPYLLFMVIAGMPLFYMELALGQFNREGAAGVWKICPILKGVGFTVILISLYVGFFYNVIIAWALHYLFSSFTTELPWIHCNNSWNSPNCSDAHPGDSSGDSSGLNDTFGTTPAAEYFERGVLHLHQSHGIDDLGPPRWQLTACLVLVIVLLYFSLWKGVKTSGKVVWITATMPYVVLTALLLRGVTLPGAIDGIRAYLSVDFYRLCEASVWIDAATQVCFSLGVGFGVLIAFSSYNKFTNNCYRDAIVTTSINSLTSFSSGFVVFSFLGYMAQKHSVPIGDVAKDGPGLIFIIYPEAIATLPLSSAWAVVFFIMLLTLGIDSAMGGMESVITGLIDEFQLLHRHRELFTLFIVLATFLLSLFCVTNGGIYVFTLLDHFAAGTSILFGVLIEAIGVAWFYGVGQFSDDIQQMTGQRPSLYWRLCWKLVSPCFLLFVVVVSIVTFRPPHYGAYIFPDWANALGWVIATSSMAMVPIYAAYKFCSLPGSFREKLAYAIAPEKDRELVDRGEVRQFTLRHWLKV

SMILES | inhibition at 10 µM (hDAT [1]) | other results
CNc1nc(C#Cc2ccc(Cl)s2)nc2c1ncn2[C@H]1[C@H](O)[C@H](O)[C@]2(C(=O)OC)C[C@H]12 [compound 9, Methyl (1S,2R,3S,4R,5S)-4-(2-((5-chlorothiophen-2-yl)ethynyl)-6-(methylamino)-9H-purin-9-yl)-2,3-dihydroxybicyclo[3.1.0]hexane-1-carboxylate] | < -20% | remaining activity at 10 µM (hDAT [1]): 391%; hNET [^125I]23 binding, % control binding (hNET): ~370%; Ki (mA3AR): > 10 µM; A3AR Binding % at 10 μM (m) (mA3AR): < 50%; hDAT [^125I]23 binding, % control binding (hDAT [2]): ~450%
CNc1nc(C#Cc2ccc(Cl)s2)nc2c1ncn2[C@@H]1O[C@H](C(=O)OC)[C@@H](O)[C@H]1O [compound 29, Methyl (2S,3S,4R,5R)-5-(2-((5-Chlorothiophen-2-yl)ethynyl)-6-(methylamino)-9H-purin-9-yl)-3,4-dihydroxytetrahydrofuran-2-carboxylate] | < -20% | fold higher EC50 than 9 for enhancement of [^3H]26 binding at hDAT (hDAT [3]): 7 fold
CCCNc1nc(C#Cc2ccc(Cl)s2)nc2c1ncn2[C@H]1[C@H](O)[C@H](O)[C@]2(C(=O)NC)C[C@H]12 [compound 7] |  | hDAT Binding Inhibition, % of control (hDAT [5]): NE (no effect); fold greater mA3AR affinity compared to ribose 5′-amide 28 (mA3AR): 88 fold
CNc1nc(C#Cc2ccc(Cl)s2)nc2c1ncn2[C@H]1[C@H](O)[C@H](O)[C@]2(C(=O)OC(C)C)C[C@H]12 [compound 15, Isopropyl (1S,2R,3S,4R,5S)-4-(2-((5-chlorothiophen-2-yl)ethynyl)-6-(methylamino)-9H-purin-9-yl)-2,3-dihydroxybicyclo[3.1.0]hexane-1-carboxylate] |  | hDAT Binding Inhibition, % of control (hDAT [1]; 10 μM, [^3H]24 binding, PDSP): slightly inhibited binding
CCOC(=O)[C@@]12C[C@@H]1[C@@H](n1cnc3c(NC)nc(C#Cc4ccc(Cl)s4)nc31)[C@H](O)[C@@H]2O [compound 10, Ethyl (1S,2R,3S,4R,5S)-4-(2-((5-chlorothiophen-2-yl)ethynyl)-6-(methylamino)-9H-purin-9-yl)-2,3-dihydroxybicyclo[3.1.0]hexane-1-carboxylate] | < -20% | hNET [^125I]23 binding, % control binding (hNET): ~370%; A3AR Binding % at 10 μM (m) (mA3AR): < 50%
CCCOC(=O)[C@@]12C[C@@H]1[C@@H](n1cnc3c(NC)nc(C#Cc4ccc(Cl)s4)nc31)[C@H](O)[C@@H]2O [compound 14, n-Propyl (1S,2R,3S,4R,5S)-4-(2-((5-chlorothiophen-2-yl)ethynyl)-6-(methylamino)-9H-purin-9-yl)-2,3-dihydroxybicyclo[3.1.0]hexane-1-carboxylate] | < -20% | 
CNC(=O)[C@@]12C[C@@H]1[C@@H](n1cnc3c(NC)nc(C#Cc4ccc(F)c(F)c4)nc31)[C@H](O)[C@@H]2O [compound 3] |  | hDAT Binding Inhibition, % of control (hDAT [5]): NE (no effect)
CNC(=O)[C@@]12C[C@@H]1[C@@H](n1cnc3c(NC)nc(C#Cc4ccc(Cl)s4)cc31)[C@H](O)[C@@H]2O [compound 6, (1S,2R,3S,4R,5S)-4-(6-((5-Chlorothiophen-2-yl)ethynyl)-4-(methylamino)-1H-imidazo[4,5-c]pyridin-1-yl)-2,3-dihydroxy-N-methylbicyclo[3.1.0]hexane-1-carboxamide] | < -20% | A3AR Binding % at 10 μM (m) (mA3AR): < 50%
CNc1nc(C#Cc2ccc(Br)s2)nc2c1ncn2[C@H]1[C@H](O)[C@H](O)[C@]2(C(=O)OC)C[C@H]12 [compound 11, Methyl (1S,2R,3S,4R,5S)-4-(2-((5-bromothiophen-2-yl)ethynyl)-6-(methylamino)-9H-purin-9-yl)-2,3-dihydroxybicyclo[3.1.0]hexane-1-carboxylate] | < -20% | 
CCOC(=O)[C@@]12C[C@@H]1[C@@H](n1cnc3c(NC)nc(C#Cc4ccc(Cl)s4)cc31)[C@H](O)[C@@H]2O [compound 13, Ethyl (1S,2R,3S,4R,5S)-4-(6-((5-chlorothiophen-2-yl)ethynyl)-4-(methylamino)-1H-imidazo[4,5-c]pyridin-1-yl)-2,3-dihydroxybicyclo[3.1.0]hexane-1-carboxylate] | < -20% | 
CCNc1cc(C#Cc2ccc(Cl)s2)nc2c1ncn2[C@H]1[C@H](O)[C@H](O)[C@]2(C(=O)NC)C[C@H]12 [5b] | -20 to 20% | 
CNc1nc(C#Cc2ccc(Cl)s2)nc2c1ncn2[C@H]1[C@H](O)[C@H](O)[C@]2(C(=O)NCCN)C[C@H]12 [compound 8, (1S,2R,3S,4R,5S)-N-(2-Aminoethyl)-4-(2-((5-chlorothiophen-2-yl)ethynyl)-6-(methylamino)-9H-purin-9-yl)-2,3-dihydroxybicyclo[3.1.0]hexane-1-carboxamide] | < -20% | remaining activity at 10 µM (hDAT [1]): 133%
CNC(=O)[C@@]12C[C@@H]1[C@@H](n1cnc3c(NC)nc(C#Cc4ccc(Br)s4)nc31)[C@H](O)[C@@H]2O [compound 2] |  | hDAT Binding Inhibition, % of control (hDAT [5]): NE (no effect)
CCOC(=O)[C@@]12C[C@@H]1[C@@H](n1cnc3c(NC)nc(C#Cc4ccc(Br)s4)nc31)[C@H](O)[C@@H]2O [compound 12, Ethyl (1S,2R,3S,4R,5S)-4-(2-((5-bromothiophen-2-yl)ethynyl)-6-(methylamino)-9H-purin-9-yl)-2,3-dihydroxybicyclo[3.1.0]hexane-1-carboxylate] | < -20% | 

Now from value to compound, other results behind:

inhibition at 10 µM (hDAT [1]) | SMILES | other results
< -20% | CCCNc1nc(C#Cc2ccc(Cl)s2)nc2c1ncn2[C@@H]1O[C@H](C(=O)NC)[C@@H](O)[C@H]1O [compound 28, (2S,3S,4R,5R)-5-(2-((5-Chlorothiophen-2-yl)ethynyl)-6-(n-propylamino)-9H-purin-9-yl)-3,4-dihydroxy-N-methyltetrahydrofuran-2-carboxamide] | efficacy in increasing paw withdrawal threshold (PWT) [4]: fully efficacious
< -20% | CNc1nc(C#Cc2ccc(Cl)s2)nc2c1ncn2[C@H]1[C@H](O)[C@H](O)[C@]2(C(=O)O)C[C@H]12 [compound 22, (1S,2R,3S,4R,5S)-4-(2-((5-Chlorothiophen-2-yl)ethynyl)-6-(methylamino)-9H-purin-9-yl)-2,3-dihydroxybicyclo[3.1.0]hexane-1-carboxylic acid] | 
-20 to 20% | CNc1nc(C#Cc2ccc(Cl)s2)nc2c1ncn2[C@H]1[C@H](O)[C@H](O)[C@]2(C(=O)OCCC3CCCCC3)C[C@H]12 [compound 18, 2-Cyclohexylethyl (1S,2R,3S,4R,5S)-4-(2-((5-chlorothiophen-2-yl)ethynyl)-6-(methylamino)-9H-purin-9-yl)-2,3-dihydroxybicyclo[3.1.0]hexane-1-carboxylate] | 
-20 to 20% | CNc1nc(C#Cc2ccc(Cl)s2)nc2c1ncn2[C@H]1[C@H](O)[C@H](O)[C@]2(C(=O)OCCCc3ccccc3)C[C@H]12 [compound 21, 3-Phenylpropyl (1S,2R,3S,4R,5S)-4-(2-((5-chlorothiophen-2-yl)ethynyl)-6-(methylamino)-9H-purin-9-yl)-2,3-dihydroxybicyclo[3.1.0]hexane-1-carboxylate] | 
< -20% | CCCCOC(=O)[C@@]12C[C@@H]1[C@@H](n1cnc3c(NC)nc(C#Cc4ccc(Cl)s4)nc31)[C@H](O)[C@@H]2O [compound 16, Butyl (1S,2R,3S,4R,5S)-4-(2-((5-chlorothiophen-2-yl)ethynyl)-6-(methylamino)-9H-purin-9-yl)-2,3-dihydroxybicyclo[3.1.0]hexane-1-carboxylate] | 
-20 to 20% | CNc1nc(C#Cc2ccc(Cl)s2)nc2c1ncn2[C@H]1[C@H](O)[C@H](O)[C@]2(C(=O)OCCc3ccccc3)C[C@H]12 [compound 20, 2-Phenylethyl (1S,2R,3S,4R,5S)-4-(2-((5-chlorothiophen-2-yl)ethynyl)-6-(methylamino)-9H-purin-9-yl)-2,3-dihydroxybicyclo[3.1.0]hexane-1-carboxylate] | 
< -20% | CNc1nc(C#Cc2ccc(Cl)s2)nc2c1ncn2[C@H]1[C@H](O)[C@H](O)[C@]2(C(=O)OCCC(C)C)C[C@H]12 [compound 17, Isopentyl (1S,2R,3S,4R,5S)-4-(2-((5-chlorothiophen-2-yl)ethynyl)-6-(methylamino)-9H-purin-9-yl)-2,3-dihydroxybicyclo[3.1.0]hexane-1-carboxylate] | 
< -20% | CNC(=O)[C@H]1O[C@@H](n2cnc3c(NC)nc(C#Cc4ccc(Cl)s4)nc32)[C@H](O)[C@@H]1O [compound 27, (2S,3S,4R,5R)-5-(2-((5-Chlorothiophen-2-yl)ethynyl)-6-(methylamino)-9H-purin-9-yl)-3,4-dihydroxy-N-methyltetrahydrofuran-2-carboxamide] | efficacy in increasing paw withdrawal threshold (PWT) [4]: fully efficacious
-20 to 20% | CNc1nc(C#Cc2ccc(Cl)s2)nc2c1ncn2[C@H]1[C@H](O)[C@H](O)[C@]2(C(=O)OCc3ccccc3)C[C@H]12 [compound 19, Benzyl (1S,2R,3S,4R,5S)-4-(2-((5-chlorothiophen-2-yl)ethynyl)-6-(methylamino)-9H-purin-9-yl)-2,3-dihydroxybicyclo[3.1.0]hexane-1-carboxylate] | 
